From EP0198522A1, “Heterocyclic herbicides” (SHELL INTERNATIONALE RESEARCH MAATSCHAPPIJ B.V., priority 1985, dated 1986)

Key:
Type in all cases: in vivo
[1] = tested on: rice, Oryza sativa; assay: Herbicidal activity, post-emergence foliar spray test; conditions: assessed visually twelve days after spraying, 0-9 scale, 0 = growth as untreated control, 9 = death
Procedure: (§1) To evaluate their herbicidal activity, compounds according to the invention were tested using as representative range of plants: maize, Zea mays (Mz); rice, Oryza sativa (R); barnyard grass, Echinochloa crusgalli (BG); oat, Avena sativa (0); linseed, Linum usitatissisum (L); mustard, Sinapsis alba (M); sugar beet, Beta vulgaris (SB) and soya bean, Glycine max (S).
(§2) The tests fall into two categories, pre-emergence and post-emergence. […] The post-emergence tests involved two types of test, viz., soil drench and foliar spray tests. In the soil drench tests the soil in which the seedling plants of the above species were growing was drenched with a liquid formulation containing a compound of the invention, and in the foliar spray tests the seedling plants were sprayed with such a formulation.
(§3) The soil used in the tests was a prepared horticultural loam.
(§4) These acetone solutions were diluted with water and the resulting formulations applied at dosage levels corresponding to 5 kg or 1 kg of active material per hectare in a volume equivalent to 600 litres per hectare in the soil spray and foliar spray test, and at a dosage of level equivalent to 10 kilograms of active material per hectare in a volume equivalent to approximately 3,000 litres per hectare in the soil drench tests.
(§5) In the pre-emexgence tests untreated sown soil and in the post-emergence tests untreated soil bearing seedling plants were used as controls.
(§6) The herbicidal effects of the test compounds were assessed visually twelve days after spraying the foliage and the soil, and thirteen days after drenching the soil and were recorded on a 0-9 scale. A rating 0 indicates growth as untreated control, a rating 9 indicates death. An increase of 1 unit on the linear scale approximates to a 10% increase in the level of effect.

[2] = tested on: mustard, Sinapsis alba; assay: as above; conditions: assessed visually twelve days after spraying, 0-9 scale, 0 = growth as untreated control, 9 = death
Procedure: as §1, §2, §3, §4, §5, §6

[3] = tested on: sugar beet, Beta vulgaris; assay: as above; conditions: assessed visually twelve days after spraying, 0-9 scale, 0 = growth as untreated control, 9 = death
Procedure: as §1, §2, §3, §4, §5, §6

[4] = tested on: soya bean, Glycine max; assay: as above; conditions: assessed visually twelve days after spraying, 0-9 scale, 0 = growth as untreated control, 9 = death
Procedure: as §1, §2, §3, §4, §5, §6

[5] = tested on: oat, Avena sativa; assay: as above; conditions: assessed visually twelve days after spraying, 0-9 scale, 0 = growth as untreated control, 9 = death
Procedure: as §1, §2, §3, §4, §5, §6

[6] = tested on: linseed, Linum usitatissisum; assay: as above; conditions: assessed visually twelve days after spraying, 0-9 scale, 0 = growth as untreated control, 9 = death
Procedure: as §1, §2, §3, §4, §5, §6

[7] = tested on: maize, Zea mays; assay: as above; conditions: assessed visually twelve days after spraying, 0-9 scale, 0 = growth as untreated control, 9 = death
Procedure: as §1, §2, §3, §4, §5, §6

[8] = tested on: barnyard grass, Echinochloa crusgalli; assay: as above; conditions: assessed visually twelve days after spraying, 0-9 scale, 0 = growth as untreated control, 9 = death
Procedure: as §1, §2, §3, §4, §5, §6

[9] = tested on: rice, Oryza sativa; assay: Herbicidal activity, post-emergence soil drench test; conditions: 10 kg/ha soil drench; assessed visually thirteen days after drenching; 0-9 scale, 0 = growth as untreated control, 9 = death
Procedure: as §1, §2, §3, §4, §5, §6

[10] = tested on: mustard, Sinapsis alba; assay: as above; conditions: 10 kg/ha soil drench; assessed visually thirteen days after drenching; 0-9 scale, 0 = growth as untreated control, 9 = death
Procedure: as §1, §2, §3, §4, §5, §6

[11] = tested on: sugar beet, Beta vulgaris; assay: as above; conditions: 10 kg/ha soil drench; assessed visually thirteen days after drenching; 0-9 scale, 0 = growth as untreated control, 9 = death
Procedure: as §1, §2, §3, §4, §5, §6

[12] = tested on: soya bean, Glycine max; assay: as above; conditions: 10 kg/ha soil drench; assessed visually thirteen days after drenching; 0-9 scale, 0 = growth as untreated control, 9 = death
Procedure: as §1, §2, §3, §4, §5, §6

[13] = tested on: oat, Avena sativa; assay: as above; conditions: 10 kg/ha soil drench; assessed visually thirteen days after drenching; 0-9 scale, 0 = growth as untreated control, 9 = death
Procedure: as §1, §2, §3, §4, §5, §6

[14] = tested on: linseed, Linum usitatissisum; assay: as above; conditions: 10 kg/ha soil drench; assessed visually thirteen days after drenching; 0-9 scale, 0 = growth as untreated control, 9 = death
Procedure: as §1, §2, §3, §4, §5, §6

[15] = tested on: maize, Zea mays; assay: as above; conditions: 10 kg/ha soil drench; assessed visually thirteen days after drenching; 0-9 scale, 0 = growth as untreated control, 9 = death
Procedure: as §1, §2, §3, §4, §5, §6

[16] = tested on: barnyard grass, Echinochloa crusgalli; assay: as above; conditions: 10 kg/ha soil drench; assessed visually thirteen days after drenching; 0-9 scale, 0 = growth as untreated control, 9 = death
Procedure: as §1, §2, §3, §4, §5, §6

[17] = tested on: rice, Oryza sativa; assay: Herbicidal activity, pre-emergence test (soil spray); conditions: assessed visually twelve days after spraying, 0-9 scale, 0 = growth as untreated control, 9 = death
Procedure: as §1, §2, §3, §4, §5, §6

[18] = tested on: mustard, Sinapsis alba; assay: as above; conditions: assessed visually twelve days after spraying, 0-9 scale, 0 = growth as untreated control, 9 = death
Procedure: as §1, §2, §3, §4, §5, §6

[19] = tested on: sugar beet, Beta vulgaris; assay: as above; conditions: assessed visually twelve days after spraying, 0-9 scale, 0 = growth as untreated control, 9 = death
Procedure: as §1, §2, §3, §4, §5, §6

[20] = tested on: soya bean, Glycine max; assay: as above; conditions: assessed visually twelve days after spraying, 0-9 scale, 0 = growth as untreated control, 9 = death
Procedure: as §1, §2, §3, §4, §5, §6

[21] = tested on: oat, Avena sativa; assay: as above; conditions: assessed visually twelve days after spraying, 0-9 scale, 0 = growth as untreated control, 9 = death
Procedure: as §1, §2, §3, §4, §5, §6

[22] = tested on: linseed, Linum usitatissisum; assay: as above; conditions: assessed visually twelve days after spraying, 0-9 scale, 0 = growth as untreated control, 9 = death
Procedure: as §1, §2, §3, §4, §5, §6

[23] = tested on: maize, Zea mays; assay: as above; conditions: assessed visually twelve days after spraying, 0-9 scale, 0 = growth as untreated control, 9 = death
Procedure: as §1, §2, §3, §4, §5, §6

[24] = tested on: barnyard grass, Echinochloa crusgalli; assay: as above; conditions: assessed visually twelve days after spraying, 0-9 scale, 0 = growth as untreated control, 9 = death
Procedure: as §1, §2, §3, §4, §5, §6

Structure (SMILES) | Foliar spray R (herbicidal effect rating) ([1]; Dosage 1 kg/ha) | Foliar spray R (herbicidal effect rating) ([1]; Dosage 5 kg/ha) | Foliar spray M (herbicidal effect rating) ([2]; Dosage 1 kg/ha) | Foliar spray M (herbicidal effect rating) ([2]; Dosage 5 kg/ha) | Foliar spray SB (herbicidal effect rating) ([3]; Dosage 1 kg/ha) | Foliar spray SB (herbicidal effect rating) ([3]; Dosage 5 kg/ha) | Foliar spray S (herbicidal effect rating) ([4]; Dosage 1 kg/ha) | Foliar spray S (herbicidal effect rating) ([4]; Dosage 5 kg/ha) | Foliar spray O (herbicidal effect rating) ([5]; Dosage 1 kg/ha) | Foliar spray O (herbicidal effect rating) ([5]; Dosage 5 kg/ha) | Foliar spray L (herbicidal effect rating) ([6]; Dosage 1 kg/ha) | Foliar spray L (herbicidal effect rating) ([6]; Dosage 5 kg/ha) | Foliar spray Mz (herbicidal effect rating) ([7]; Dosage 1 kg/ha) | Foliar spray Mz (herbicidal effect rating) ([7]; Dosage 5 kg/ha) | Foliar spray BG (herbicidal effect rating) ([8]; Dosage 1 kg/ha) | Foliar spray BG (herbicidal effect rating) ([8]; Dosage 5 kg/ha) | Soil drench 10/kg/ha R (herbicidal effect rating) [9] | Soil drench 10/kg/ha M (herbicidal effect rating) [10] | Soil drench 10/kg/ha SB (herbicidal effect rating) [11] | Soil drench 10/kg/ha S (herbicidal effect rating) [12] | other results
CC(C)C1(C)NC(c2nc3cc4c(cc3cc2C(=O)O)OCO4)=NC1=O (stereo not drawn) [Example 2, 2-(5-methyl-5-isopropyl-4-oxo-2-imidazolin-2-yl)-[1,3]-dioxolo[4,5-g] quinoline-3-carboxylic acid] | 6 | 6 | 7 | 7 | 7 | 7 | 2 | 4 | 6 | 7 | 6 | 6 | 6 | 7 | 7 | 7 | 7 | 9 | 8 | 6 | Soil drench 10/kg/ha O (herbicidal effect rating) [13]: 7; Soil drench 10/kg/ha L (herbicidal effect rating) [14]: 7; Soil drench 10/kg/ha Mz (herbicidal effect rating) [15]: 7; Soil drench 10/kg/ha BG (herbicidal effect rating) [16]: 9; Pre-emergence R (herbicidal effect rating) ([17]; Dosage 1 kg/ha): 9; Pre-emergence R (herbicidal effect rating) ([17]; Dosage 5 kg/ha): 9; Pre-emergence M (herbicidal effect rating) ([18]; Dosage 1 kg/ha): 7; Pre-emergence M (herbicidal effect rating) ([18]; Dosage 5 kg/ha): 7; Pre-emergence SB (herbicidal effect rating) ([19]; Dosage 1 kg/ha): 8; Pre-emergence SB (herbicidal effect rating) ([19]; Dosage 5 kg/ha): 8; Pre-emergence S (herbicidal effect rating) ([20]; Dosage 1 kg/ha): 8; Pre-emergence S (herbicidal effect rating) ([20]; Dosage 5 kg/ha): 8; Pre-emergence O (herbicidal effect rating) ([21]; Dosage 1 kg/ha): 7; Pre-emergence O (herbicidal effect rating) ([21]; Dosage 5 kg/ha): 7; Pre-emergence L (herbicidal effect rating) ([22]; Dosage 1 kg/ha): 8; Pre-emergence L (herbicidal effect rating) ([22]; Dosage 5 kg/ha): 9; Pre-emergence Mz (herbicidal effect rating) ([23]; Dosage 1 kg/ha): 8; Pre-emergence Mz (herbicidal effect rating) ([23]; Dosage 5 kg/ha): 8; Pre-emergence BG (herbicidal effect rating) ([24]; Dosage 1 kg/ha): 8; Pre-emergence BG (herbicidal effect rating) ([24]; Dosage 5 kg/ha): 8
COC(=O)c1cc2cc3c(cc2nc1C1=NC(=O)C(C)(C(C)C)N1)OCO3 (stereo not drawn) [Example 1, Methyl-2-(5-i.saprapyl-5-methyl-4-oxo-2-imidazolin-2-yl)-[1,3]-dioxolo[4,5-g] quinoline-3-carboxylate] | 4 | 6 | 5 | 7 | 6 | 8 | 0 | 2 | 5 | 6 | 6 | 7 | 5 | 7 | 4 | 7 | 7 | 8 | 7 | 4 | Soil drench 10/kg/ha O (herbicidal effect rating) [13]: 6; Soil drench 10/kg/ha L (herbicidal effect rating) [14]: 6; Soil drench 10/kg/ha Mz (herbicidal effect rating) [15]: 6; Soil drench 10/kg/ha BG (herbicidal effect rating) [16]: 7; Pre-emergence R (herbicidal effect rating) ([17]; Dosage 1 kg/ha): 4; Pre-emergence R (herbicidal effect rating) ([17]; Dosage 5 kg/ha): 8; Pre-emergence M (herbicidal effect rating) ([18]; Dosage 1 kg/ha): 4; Pre-emergence M (herbicidal effect rating) ([18]; Dosage 5 kg/ha): 7; Pre-emergence SB (herbicidal effect rating) ([19]; Dosage 1 kg/ha): 6; Pre-emergence SB (herbicidal effect rating) ([19]; Dosage 5 kg/ha): 6; Pre-emergence S (herbicidal effect rating) ([20]; Dosage 1 kg/ha): 0; Pre-emergence S (herbicidal effect rating) ([20]; Dosage 5 kg/ha): 0; Pre-emergence O (herbicidal effect rating) ([21]; Dosage 1 kg/ha): 5; Pre-emergence O (herbicidal effect rating) ([21]; Dosage 5 kg/ha): 7; Pre-emergence L (herbicidal effect rating) ([22]; Dosage 1 kg/ha): 6; Pre-emergence L (herbicidal effect rating) ([22]; Dosage 5 kg/ha): 7; Pre-emergence Mz (herbicidal effect rating) ([23]; Dosage 1 kg/ha): 5; Pre-emergence Mz (herbicidal effect rating) ([23]; Dosage 5 kg/ha): 7; Pre-emergence BG (herbicidal effect rating) ([24]; Dosage 1 kg/ha): 5; Pre-emergence BG (herbicidal effect rating) ([24]; Dosage 5 kg/ha): 8
CC(C)C1(C)NC(c2nc3cc4c(cc3cc2C(=O)[O-])OCO4)=NC1=O.[Na+] (stereo not drawn) [Example 4, Sodivmt-2-(5-isopropyl-5-methyl-4-oxo-2-imidazolin-2-yl)-[1,3]-dioxolo[4,5-g] quinoline-3-carboxylic acid (salt)] | 4 | 4 | 8 | 8 | 7 | 8 | 2 | 3 | 4 | 4 | 6 | 6 | 4 | 6 | 7 | 8 | 5 | 8 | 8 | 6 | Soil drench 10/kg/ha O (herbicidal effect rating) [13]: 4; Soil drench 10/kg/ha L (herbicidal effect rating) [14]: 6; Soil drench 10/kg/ha Mz (herbicidal effect rating) [15]: 5; Soil drench 10/kg/ha BG (herbicidal effect rating) [16]: 8; Pre-emergence R (herbicidal effect rating) ([17]; Dosage 1 kg/ha): 8; Pre-emergence R (herbicidal effect rating) ([17]; Dosage 5 kg/ha): 9; Pre-emergence M (herbicidal effect rating) ([18]; Dosage 1 kg/ha): 7; Pre-emergence M (herbicidal effect rating) ([18]; Dosage 5 kg/ha): 7; Pre-emergence SB (herbicidal effect rating) ([19]; Dosage 1 kg/ha): 8; Pre-emergence SB (herbicidal effect rating) ([19]; Dosage 5 kg/ha): 8; Pre-emergence S (herbicidal effect rating) ([20]; Dosage 1 kg/ha): 2; Pre-emergence S (herbicidal effect rating) ([20]; Dosage 5 kg/ha): 5; Pre-emergence O (herbicidal effect rating) ([21]; Dosage 1 kg/ha): 5; Pre-emergence O (herbicidal effect rating) ([21]; Dosage 5 kg/ha): 6; Pre-emergence L (herbicidal effect rating) ([22]; Dosage 1 kg/ha): 8; Pre-emergence L (herbicidal effect rating) ([22]; Dosage 5 kg/ha): 9; Pre-emergence Mz (herbicidal effect rating) ([23]; Dosage 1 kg/ha): 8; Pre-emergence Mz (herbicidal effect rating) ([23]; Dosage 5 kg/ha): 8; Pre-emergence BG (herbicidal effect rating) ([24]; Dosage 1 kg/ha): 8; Pre-emergence BG (herbicidal effect rating) ([24]; Dosage 5 kg/ha): 8
